Experimental data as given in US9604923B2 (H. LEE MOFFITT CANCER CENTER AND RESEARCH INSTITUTE, INC., priority 2006, dated 2017).

Tests used:
[1] = target: STAT3 (Mus musculus, UniProt P42227); assay: Inhibition of STAT3 dimerization, EMSA assay; type: binding; parameters: endogenous in cells; host or cells: nuclear extracts per the general EMSA method
[2] = target: T1, Stat1:1 (Mus musculus, UniProt P42225); assay: STATs DNA-binding activity in vitro, EMSA; settings: Table 4; read-out: IC50 values for the inhibition of STATs DNA-binding activity in vitro, Stat1:1
T1 construct: endogenous in cells; host or cells: EGF-stimulated NIH3T3/hEGFR mouse fibroblasts, nuclear extracts
T1 sequence (P42225 2-749 limits assumed): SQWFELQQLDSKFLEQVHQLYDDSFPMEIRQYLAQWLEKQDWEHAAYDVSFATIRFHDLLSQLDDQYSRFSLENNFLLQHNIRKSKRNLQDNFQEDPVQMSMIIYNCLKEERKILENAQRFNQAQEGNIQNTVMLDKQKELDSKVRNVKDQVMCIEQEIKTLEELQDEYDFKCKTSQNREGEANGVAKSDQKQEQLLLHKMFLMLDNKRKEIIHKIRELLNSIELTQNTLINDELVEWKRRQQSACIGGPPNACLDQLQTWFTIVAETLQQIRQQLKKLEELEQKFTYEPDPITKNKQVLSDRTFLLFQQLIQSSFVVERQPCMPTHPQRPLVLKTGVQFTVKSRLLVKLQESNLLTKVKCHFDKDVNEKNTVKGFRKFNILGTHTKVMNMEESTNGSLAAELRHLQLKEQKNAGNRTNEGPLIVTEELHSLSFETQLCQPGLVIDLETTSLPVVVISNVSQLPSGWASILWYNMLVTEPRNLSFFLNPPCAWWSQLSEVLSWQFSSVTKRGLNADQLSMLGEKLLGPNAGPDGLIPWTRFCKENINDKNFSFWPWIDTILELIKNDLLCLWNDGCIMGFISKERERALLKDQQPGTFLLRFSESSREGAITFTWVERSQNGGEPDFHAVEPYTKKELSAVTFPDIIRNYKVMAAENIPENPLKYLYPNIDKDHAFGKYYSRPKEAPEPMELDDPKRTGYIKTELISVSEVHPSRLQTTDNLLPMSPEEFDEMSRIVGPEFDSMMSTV

[3] = target: T2, Stat1:3 (Mus musculus, UniProt P42227); assay: STATs DNA-binding activity in vitro, EMSA with hSIE probe; settings: Table 4; read-out: IC50 values for the inhibition of STATs DNA-binding activity in vitro, Stat1:3
T2 construct: endogenous in cells; host or cells: EGF-stimulated NIH3T3/hEGFR mouse fibroblasts, nuclear extracts

[4] = target: T3, Stat3:3 (Mus musculus, UniProt P42227); assay: as above; settings: for IC50: Table 4, read-out: IC50 values for the inhibition of STATs DNA-binding activity in vitro, Stat3:3; for selectivity among STAT family members, in words: nuclear extracts of EGF-stimulated NIH3T3/hEGFR
T3 construct: endogenous in cells; host or cells: NIH3T3/v-Src or EGF-stimulated NIH3T3/hEGFR mouse fibroblasts, nuclear extracts

[5] = target: Stat5:5; assay: STATs DNA-binding activity in vitro, EMSA with MGFe probe; parameters: species or system mouse; settings: Table 4; read-out: IC50 values for the inhibition of STATs DNA-binding activity in vitro, Stat5:5

Sequence of STAT3 (P42227 2-770 limits assumed): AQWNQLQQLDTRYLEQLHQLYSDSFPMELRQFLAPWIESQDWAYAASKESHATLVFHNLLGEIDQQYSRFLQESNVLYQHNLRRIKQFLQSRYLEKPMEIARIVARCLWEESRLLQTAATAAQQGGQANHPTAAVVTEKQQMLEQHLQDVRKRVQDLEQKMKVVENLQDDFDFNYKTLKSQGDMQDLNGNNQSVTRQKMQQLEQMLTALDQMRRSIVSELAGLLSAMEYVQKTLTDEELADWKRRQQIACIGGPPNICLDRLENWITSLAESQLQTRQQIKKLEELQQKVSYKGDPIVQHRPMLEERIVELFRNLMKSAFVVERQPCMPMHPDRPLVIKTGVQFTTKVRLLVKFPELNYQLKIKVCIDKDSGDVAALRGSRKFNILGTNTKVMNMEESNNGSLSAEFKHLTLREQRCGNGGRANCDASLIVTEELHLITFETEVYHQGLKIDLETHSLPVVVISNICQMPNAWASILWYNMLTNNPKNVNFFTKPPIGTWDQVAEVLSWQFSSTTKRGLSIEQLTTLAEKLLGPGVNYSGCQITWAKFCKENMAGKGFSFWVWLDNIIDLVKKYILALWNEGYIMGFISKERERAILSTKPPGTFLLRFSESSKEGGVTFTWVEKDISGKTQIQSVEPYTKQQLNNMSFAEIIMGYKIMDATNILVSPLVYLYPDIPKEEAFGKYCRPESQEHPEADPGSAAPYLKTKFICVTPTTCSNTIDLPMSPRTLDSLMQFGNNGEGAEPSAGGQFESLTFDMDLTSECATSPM
T3 sequence (P42227 2-770 limits assumed): as above
T2 sequence (P42227 2-770 limits assumed): as above

IC50 [1] [µM]	IC50 [2] [µM]	IC50 [3] [µM]	IC50 [4] [µM]	IC50 [5] [µM]	SMILES	also measured
> 500	–	–	–	–	Cc1ccc(S(=O)(=O)OCC(=O)Nc2ccccc2)cc1 [Compound 6, 2-Oxo-2-(phenylamino)ethyl 4-methylbenzenesulfonate]	–
> 500	–	–	–	–	Cc1ccc(S(=O)(=O)OCC(=O)Nc2ccc(C#N)cc2)cc1 [Compound 7, 2-(4-Cyanophenylamino)-2-oxoethyl 4-methylbenzenesulfonate]	–
> 500	–	–	–	–	Cc1ccc(S(=O)(=O)OCC(=O)Nc2ccc(S(N)(=O)=O)cc2)cc1 [Compound 8, 2-Oxo-2-(4-sulfamoylphenylamino)ethyl 4-methylbenzenesulfonate]	–
> 500	–	–	–	–	Cc1ccc(S(=O)(=O)NCC(=O)Nc2ccc(C(=O)O)c(O)c2)cc1 [Compound 11]	–
> 500	–	–	–	–	O=C(COS(=O)(=O)c1ccc(-c2ccc(Cl)cc2)cc1)Nc1ccc(C(=O)O)c(O)c1 [Compound 15, 4-(2-(4′-Chlorobiphenyl-4-ylsulfonyloxy)acetamido)-2-hydroxybenzoic acid]	–
> 500	–	–	–	–	O=C(COS(=O)(=O)c1ccc(-c2ccccc2)cc1)Nc1ccc(C(=O)O)cc1 [Compound 20, 4-(2-(Biphenyl-4-ylsulfonyloxy)acetamido)benzoic acid]	–
> 500	–	–	–	–	O=C(COCc1ccccc1)Nc1ccc(C(=O)O)cc1 [Compound 22, 4-(2-(Benzyloxy)acetamido)benzoic acid]	–
> 500	–	–	–	–	O=C(COCc1ccccc1)Nc1ccc(C(=O)O)c(O)c1 [Compound 23, 4-(2-(Benzyloxy)acetamido)-2-hydroxybenzoic acid]	–
< 500	–	–	–	–	O=C(CCS(=O)(=O)c1ccccc1)Nc1ccc(C(=O)O)c(O)c1 [Compound 24, 4-(3-(Phenylsulfonyl)propanamido)-2-hydroxybenzoic acid]	–
< 500	–	–	–	–	O=C(CCS(=O)(=O)c1ccccc1)Nc1ccc(C(=O)O)cc1 [Compound 25, 4-(3-(Phenylsulfonyl)propanamido)benzoic acid]	–
> 500	–	–	–	–	O=C(CCCc1ccccc1)Nc1ccc(C(=O)O)cc1 [Compound 27, 4-(4-Phenylbutanamido)benzoic acid]	–
> 500	–	–	–	–	N#Cc1ccc(NC(=O)CNS(=O)(=O)c2ccc(-c3ccccc3)cc2)cc1 [Compound 28, 2-(Biphenyl-4-ylsulfonamido)-N-(4-cyanophenyl)acetamide]	–
> 500	–	–	–	–	O=C(CNS(=O)(=O)c1ccc(-c2ccccc2)cc1)Nc1ccc(S(=O)(=O)O)cc1 [Compound 29, 4-(2-(Biphenyl-4-ylsulfonamido)acetamido)benzenesulfonic acid]	–
> 500	–	–	–	–	NS(=O)(=O)c1ccc(NC(=O)CNS(=O)(=O)c2ccc(-c3ccccc3)cc2)cc1 [Compound 30, 2-(Biphenyl-4-ylsulfonamido)-N-(4-sulfamoylphenyl)acetamide]	–
< 500	–	–	–	–	Cc1ccc(S(=O)(=O)NCC(CC(=O)Nc2ccccc2)c2ccc(Cl)cc2)cc1 (stereo not shown) [Compound 36, 3-(4-Chlorophenyl)-4-(4-methylphenylsulfonamido)-N-phenylbutanamide]	–
> 500	–	–	–	–	CCOC(=O)c1ccc(NC(=O)CCc2ccc3ccccc3c2)cc1 [Compound 69, Ethyl 4-(3-(naphthalen-2-yl)propanamido)benzoate]	–
> 500	–	–	–	–	O=C(CCc1ccccc1)Nc1ccc(C(=O)O)cc1 [Compound 72, 4-(3-Phenylpropanamido)benzoic acid]	–

IC50 [1] [µM]	IC50 [2] [µM]	IC50 [3] [µM]	IC50 [4] [µM]	IC50 [5] [µM]	SMILES	also measured
> 500	–	–	–	–	O=C(CCc1ccccc1)Nc1ccc(C(=O)O)c(O)c1 [Compound 73, 4-(3-Phenylpropanamido)-2-hydroxybenzoic acid]	–
< 500	–	–	–	–	COC(=O)c1ccc2cc(C(=O)Nc3cc(C(=O)O)ccc3O)ccc2c1 [Compound 75, 4-hydroxy-3-(6-(methoxycarbonyl)-2-naphthamido)benzoic acid]	–
–	105	145	80	221	O=C1C=C(Nc2ccc(S(=O)(=O)Nc3ccccn3)cc2)C(=O)C=C1Nc1ccc(S(=O)(=O)Nc2ccccn2)cc1 [NSC 11421]	inhibition of Stat3 DNA-binding activity, in words [4]: notable potent inhibitors
–	267	256	245	235	O=C1c2ccccc2-c2ccc(N(Cc3ccc([N+](=O)[O-])cc3)Cc3ccc([N+](=O)[O-])cc3)cc21 [NSC 24056]	–
–	95	68	85	125	C=CC1=C(C)/C(=C/c2[nH]c(Cc3[nH]c(/C=C4\NC(=O)C(C)=C4C=C)c(C)c3CCC(=O)O)c(CCC(=O)O)c2C)NC1=O [NSC 26685]	–
–	197	86	65	88	O=C(O)c1cc(O)c(O)c(OC(=O)c2cc(O)c(O)c(O)c2CNc2ccc3cc(S(=O)(=O)O)cc(S(=O)(=O)O)c3c2)c1 [NSC 42067]	inhibition of Stat3 DNA-binding activity, in words [4]: Potent inhibition; selectivity among STAT family members, in words [4]: preferentially inhibit Stat3 and Stat5 over that of Stat1
–	300	300	292	> 300	CC(CCC(=O)O)(c1ccc(OC(=O)Nc2ccccc2Cl)cc1)c1ccc(OC(=O)Nc2ccccc2Cl)cc1 [NSC 51926]	–
–	225	258	295	285	O=C(Nc1cccc(NC(=O)C(=O)O)c1)Oc1ccccc1 [NSC 71906]	–
–	72	104	160	> 300	Cc1cc(N=Nc2ccc(-c3ccc(N=Nc4ccc(O)c(C(=O)O)c4)cc3)cc2)c(N)c(N=Nc2cc(C(=O)O)ccc2Cl)c1N.[Na+] [NSC 75912]	inhibition of Stat3 DNA-binding activity, in words [4]: Potent inhibition; selectivity among STAT family members, in words [4]: preferentially inhibits Stat1 over Stat3 or Stat5
–	113	263	276	> 300	Cc1cc(N=Nc2ccc(-c3ccc(N=Nc4ccc(O)c(C(=O)O)c4)cc3)cc2)c(N)c(N=Nc2cccc(OCC(=O)O)c2)c1N [NSC 75914]	–
–	> 300	> 300	> 300	> 300	O=C(OC1COC(n2c(=O)oc3cc([N+](=O)[O-])ccc32)C(OC(=O)c2ccccc2)C1OC(=O)c1ccccc1)c1ccccc1 (stereo not shown) [NSC 87849]	–
–	> 300	> 300	> 300	> 300	CN=C(Nc1ccccn1)c1ccc(NC(=O)c2ccc(C(=O)Nc3ccc(C(=NC)Nc4ccccn4)cc3)cc2)cc1 [NSC 90438]	–
–	> 300	> 300	275	288	CC(C)NC(=O)c1cc(NC(=O)c2ccc(C(=O)Nc3cc(C(=O)NC(C)C)cc(C4=NCCN4)c3)cc2)cc(C2=NCCN2)c1 [NSC 101595]	–
–	> 300	292	202	> 300	O=C(O)c1cc(N=C2C=CC(=C(c3ccccc3)c3ccc(Nc4ccc(Cl)c(C(=O)O)c4)cc3)C=C2)ccc1Cl [NSC 117907]	–
–	253	256	225	255	O=C(/C=C/c1ccccc1)NC(=S)Nc1ccc(C(=O)O)cc1 [NSC 205965]	–
–	> 300	290	220	> 300	CCCCCCCCCCCC(=O)NC(=S)Nc1ccc(C(=O)O)cc1 [NSC 216360]	–

SMILES	IC50 [1] [µM]	IC50 [2] [µM]	IC50 [3] [µM]	IC50 [4] [µM]	IC50 [5] [µM]	also measured
O=C(CNS(=O)(=O)c1ccc(-c2ccc(Cl)cc2)cc1)Nc1ccc(C(=O)O)cc1 [Compound 31]	> 500	–	–	–	–	–
O=C(CNS(=O)(=O)c1ccc(-c2ccccc2)cc1)Nc1ccc(C(=O)O)cc1 [Compound 32]	> 500	–	–	–	–	–
